Measured values as given in article PMC8303725 (International Journal of Molecular Sciences, 2021).
Read-outs that look alike come from different tables or passages of the source.

How the values were obtained:
[1] = biological target: T1, Human Topo I (topoisomerase I) (Homo sapiens, UniProt P11387); assay: Topo I DNA relaxation fluorescence plate assay (Inspiralis); format: biochemical
T1 construct: gene TOP1
T1 sequence (P11387 2-765): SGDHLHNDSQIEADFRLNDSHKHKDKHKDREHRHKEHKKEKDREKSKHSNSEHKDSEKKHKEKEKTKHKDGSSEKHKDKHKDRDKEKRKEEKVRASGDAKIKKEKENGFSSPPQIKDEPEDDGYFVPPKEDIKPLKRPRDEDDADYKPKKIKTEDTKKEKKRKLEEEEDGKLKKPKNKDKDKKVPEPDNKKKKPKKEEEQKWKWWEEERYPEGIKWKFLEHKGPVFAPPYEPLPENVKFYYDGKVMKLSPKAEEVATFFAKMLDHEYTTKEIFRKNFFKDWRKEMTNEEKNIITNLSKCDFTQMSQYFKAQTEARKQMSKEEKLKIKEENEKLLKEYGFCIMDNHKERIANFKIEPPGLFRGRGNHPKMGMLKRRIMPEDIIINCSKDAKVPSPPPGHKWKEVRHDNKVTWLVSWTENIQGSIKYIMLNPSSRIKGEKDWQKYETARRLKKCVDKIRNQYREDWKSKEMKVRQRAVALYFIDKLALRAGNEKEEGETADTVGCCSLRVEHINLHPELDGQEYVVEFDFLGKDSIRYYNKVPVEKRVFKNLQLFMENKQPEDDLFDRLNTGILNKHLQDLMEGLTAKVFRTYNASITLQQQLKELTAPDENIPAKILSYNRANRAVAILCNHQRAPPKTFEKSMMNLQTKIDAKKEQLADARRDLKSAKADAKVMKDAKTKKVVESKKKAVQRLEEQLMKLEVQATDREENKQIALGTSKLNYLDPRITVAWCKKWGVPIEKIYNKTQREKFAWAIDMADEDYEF

[2] = tested on: nicked decamer 1 (nicked DNA duplex with PEG(6) tethers) (DNA, duplex, nick between T5 and G6; PEG6 tether at both ends of the duplex, joining the strands into one chain) GCGTT/GTCGC/GCGACAACGC; assay: MALDI-MS of reaction product; details: 25 mM NaCl, 25 mM K3PO4; covalent; biohybrid peak m/z 7290.9; pH 6
[3] = tested on: nicked decamer 1 (nicked DNA duplex with PEG(6) tethers) (DNA, duplex, nick between T5 and G6; PEG6 tether at both ends of the duplex, joining the strands into one chain) GCGTT/GTCGC/GCGACAACGC; assay: 1H/13C HSQC with 24-13C compound; details: 25 mM NaCl, 25 mM K3PO4; covalent; pH 6; 298 K; site tentatively NH2 of a base in nick
[4] = tested on: nicked decamer 1 (nicked DNA duplex with PEG(6) tethers) (DNA, duplex, nick between T5 and G6; PEG6 tether at both ends of the duplex, joining the strands into one chain) GCGTT/GTCGC/GCGACAACGC; assay: DOSY NMR; details: 25 mM NaCl, 25 mM K3PO4; D2O, pH 6, 25 °C; filtered mother liquor; equal diffusion coefficients; bound species may include bioconjugate, 4, SN38

CCc1c2c(nc3ccc(O)cc13)-c1cc3c(c(=O)n1C2)COC(=O)[C@]3(O)CC [SN38]
IC50 ([1]; read-out: IC50): 40.3 µM

CCc1c2c(nc3ccc(O)c(CNC)c13)-c1cc3c(c(=O)n1C2)COC(=O)[C@]3(O)CC [compound 2, 7-ethyl-9-(N-methylamino)methyl-10-hydroxycamptothecin]
binding [2]: yes | IC50 [1]: 101 µM

CCc1c2c(nc3ccc(O)c(CN4CCOCC4)c13)-c1cc3c(c(=O)n1C2)COC(=O)[C@]3(O)CC [compound 3, 7-ethyl-9-(N-morpholino)methyl-10-hydroxycamptothecin]
binding [3]: yes | binding [4]: yes | IC50 [1]: 48.7 µM
